Calls of active or inactive are those of the source. The calls are words filed in the database; no cut-off is given here. A value given as a limit tells only on which side of the number the result lay.

Series [1] can be described thus: Induction of osteoblast differentiation in C57BL/6 mouse Pre-Osteoblast cells assessed as fold increase in ephrinB2 protein expression at 100 nM measured after 72 hrs by Western blot analysis relative to control. Type of series: functional. A general note: Immunoblotting shows a protein as a band on a membrane.
Series [2] concerns Mus musculus. Briefly: Anti-osteoporosis activity in ovariectomized C57BL/6J mouse model assessed as increase in bone surface density in femur at 20 microg/kg, sc administered 3 times a week for 8 weeks by micro-CT analysis. The format is functional, organism-based. Particulars: dose 20.0 µg/kg.
Series [3] concerns Pre-Osteoblast. Briefly: Induction of osteoblast differentiation in C57BL/6 mouse Pre-Osteoblast cells assessed as increase in bone mineralization by measuring increase in area of calcium nodules measured after 14 days by Alizarin Red S staining based analysis. Type of series: functional, cell-based. Conditions: time 14.0 day.
The subject of series [4] is Pre-Osteoblast. Nature of the series: Induction of osteoblast differentiation in C57BL/6 mouse Pre-Osteoblast cells assessed as increase in bone mineralization by measuring increase in red calcium nodules measured after 14 days by Alizarin Red S staining based analysis. The format is functional, cell-based. Particulars: time 14.0 day.
For series [5], the system named is Pre-Osteoblast. Briefly: Induction of osteoblast differentiation in C57BL/6 mouse Pre-Osteoblast cells assessed as upregulation of Runx2 gene expression measured on day 4 and 7 by qPCR analysis. Type of series: functional, cell-based. Particulars: time 4-7 day. For orientation: In qPCR the cycle at which signal appears reflects the starting amount.
The nature of series [6]: Cytotoxicity against C57BL/6 mouse Pre-Osteoblast cells assessed as cell death upto 5 uM incubated for 4 days by CCK-8 assay. The format is toxicity, cell-based. Conditions: 96 h, time 4 day.
Series [7] is described as follows: Stability in human serum assessed as compound remaining at 1 mg/ml measured after 12 hrs by HPLC analysis. The format is ADME, cell-free. Particulars: read-out: Stability.
Series [8] has as its system Pre-Osteoblast. Briefly: Induction of osteoblast differentiation in C57BL/6 mouse Pre-Osteoblast cells assessed as increase in ALP expression by measuring increase in ALP-positive cells with purple color at 50 nM measured after 2 days by ALP staining based analysis. Type of series: functional, cell-based. Particulars: time 2.0 day.
For series [9], the system named is Pre-Osteoblast. Briefly: Induction of osteoblast differentiation in C57BL/6 mouse Pre-Osteoblast cells assessed as upregulation of OCN gene expression measured on day 4 and 7 by qPCR analysis. Type of series: functional, cell-based. Conditions: time 4-7 day.
The subject of series [10] is Pre-Osteoblast. Nature of the series: Induction of osteoblast differentiation in C57BL/6 mouse Pre-Osteoblast cells assessed as upregulation of ALP gene expression measured on day 4 and 7 by qPCR analysis. The format is functional, cell-based. Conditions: time 4-7 day.
Series [11] can be described thus: Induction of osteoblast differentiation in C57BL/6 mouse Pre-Osteoblast cells assessed as fold increase in ephrinB2 protein expression at 200 nM measured after 72 hrs by Western blot analysis relative to control. Type of series: functional.
Series [12] deals with Mus musculus. Nature of the series: Anti-osteoporosis activity in ovariectomized C57BL/6J mouse model assessed as increase in trabecular number in femur at 20 microg/kg, sc administered 3 times a week for 8 weeks by micro-CT analysis. The format is functional, organism-based. Particulars: dose 20.0 µg/kg.
Series [13] in a line: Induction of osteoblast differentiation in C57BL/6 mouse Pre-Osteoblast cells assessed as fold increase in ephrinB2 protein expression at 50 nM measured after 72 hrs by Western blot analysis relative to control. The format is functional.
The subject of series [14] is Mus musculus. Briefly: Anti-osteoporosis activity in ovariectomized C57BL/6J mouse model assessed as increase in bone volume percent in femur at 20 microg/kg, sc administered 3 times a week for 8 weeks by micro-CT analysis. Type of series: functional, organism-based. Conditions: dose 20.0 µg/kg.
Series [15] in a line: Stability in human serum assessed as compound degradation at 1 mg/ml measured after 12 hrs by HPLC analysis. Type of series: ADME, cell-free. Particulars: read-out: Drug degradation.

On to `CC[C@H](C)[C@H](NC(=O)[C@H](CCC(=O)O)NC(=O)[C@H](CO)NC(=O)[C@@H](NC(=O)[C@H](CO)NC(C)=O)C(C)C)C(=O)N[C@@H](CCC(N)=O)C(=O)N[C@@H](CC(C)C)C(=O)N[C@@H](CCSC)C(=O)N[C@@H](Cc1cnc[nH]1)C(=O)N[C@@H](CC(N)=O)C(=O)N[C@@H](CC(C)C)C(=O)NCC(=O)N[C@@H](CCCCN)C(=O)N[C@@H](Cc1cnc[nH]1)C(=O)N[C@@H](CC(C)C)C(=O)N[C@@H](CC(N)=O)C(=O)N[C@@H](CO)C(=O)N[C@@H](CCSC)C(=O)N[C@@H](CCC(=O)O)C(=O)N[C@@H](CCCNC(=N)N)C(=O)N[C@H](C(=O)N[C@@H](CCC(=O)O)C(=O)N[C@@H](Cc1c[nH]c2ccccc12)C(=O)N[C@@H](CC(C)C)C(=O)N[C@@H](CCCNC(=N)N[C@@H]1O[C@H](CO)[C@@H](O[C@H]2O[C@H](CO)[C@@H](O)[C@H](O)[C@H]2O)[C@H](O)[C@H]1O)C(=O)N[C@@H](CCCCN)C(=O)N[C@@H](CCCCN)C(=O)N[C@@H](CC(C)C)C(=O)N[C@@H](CCC(N)=O)C(=O)N[C@@H](CC(=O)O)C(=O)N[C@H](C(=O)N[C@@H](Cc1cnc[nH]1)C(=O)N[C@@H](CC(N)=O)C(=O)N[C@@H](Cc1ccccc1)C(N)=O)C(C)C)C(C)C`, for which the “fold change (FC)” value in series [1] amounted to 1.34; in [11], 1.32; in series [13] it was 1.16. Further, the result with Mus musculus [2], in the series on Pre-Osteoblast [3], in the series with Pre-Osteoblast [4], in the series on Pre-Osteoblast [5], in the series with Pre-Osteoblast [8] and in the series on Pre-Osteoblast [9] was Active. Besides, the result in the series with Pre-Osteoblast [10], with Mus musculus [12] and in the series on Mus musculus [14] was Active. Moreover, in [6], the Activity result is on record as “Non-Toxic”. For the same molecule, in series [7], the remaining at 12 h, 1 mg/ml was over 75%.
Take `CC[C@H](C)[C@H](NC(=O)[C@H](CCC(=O)O)NC(=O)[C@H](CO)NC(=O)[C@@H](NC(=O)[C@H](CO)NC(C)=O)C(C)C)C(=O)N[C@@H](CCC(N)=O)C(=O)N[C@@H](CC(C)C)C(=O)N[C@@H](CCSC)C(=O)N[C@@H](Cc1cnc[nH]1)C(=O)N[C@@H](CC(N)=O)C(=O)N[C@@H](CC(C)C)C(=O)NCC(=O)N[C@@H](CCCCN)C(=O)N[C@@H](Cc1cnc[nH]1)C(=O)N[C@@H](CC(C)C)C(=O)N[C@@H](CC(N)=O)C(=O)N[C@@H](CO)C(=O)N[C@@H](CCSC)C(=O)N[C@@H](CCC(=O)O)C(=O)N[C@@H](CCCNC(=N)N)C(=O)N[C@H](C(=O)N[C@@H](CCC(=O)O)C(=O)N[C@@H](Cc1c[nH]c2ccccc12)C(=O)N[C@@H](CC(C)C)C(=O)N[C@@H](CCCNC(=N)N)C(=O)N[C@@H](CCCCN)C(=O)N[C@@H](CCCCN)C(=O)N[C@@H](CC(C)C)C(=O)N[C@@H](CCC(N)=O)C(=O)N[C@@H](CC(=O)O)C(=O)N[C@H](C(=O)N[C@@H](Cc1cnc[nH]1)C(=O)N[C@@H](CC(N)=O)C(=O)N[C@@H](Cc1ccccc1)C(N)=O)C(C)C)C(C)C`: the “fold change (FC)” value in [1] is on record as 1.05; in series [11], 1.23; in [13], 1.04. In addition, the Activity result in [6] was “Non-Toxic”. Besides, in series [15], the metabolised at 12 h, 1 mg/ml was over 50%.
Take `CC[C@H](C)[C@H](NC(=O)[C@H](CCC(=O)O)NC(=O)[C@H](CO)NC(=O)[C@@H](NC(=O)[C@H](CO)NC(C)=O)C(C)C)C(=O)N[C@@H](CCC(N)=O)C(=O)N[C@@H](CC(C)C)C(=O)N[C@@H](CCSC)C(=O)N[C@@H](Cc1cnc[nH]1)C(=O)N[C@@H](CC(N)=O)C(=O)N[C@@H](CC(C)C)C(=O)NCC(=O)N[C@@H](CCCCN)C(=O)N[C@@H](Cc1cnc[nH]1)C(=O)N[C@@H](CC(C)C)C(=O)N[C@@H](CC(N)=O)C(=O)N[C@@H](CO)C(=O)N[C@@H](CCSC)C(=O)N[C@@H](CCC(=O)O)C(=O)N[C@@H](CCCNC(=N)N[C@@H]1OC[C@@H](O)[C@H](O)[C@H]1O)C(=O)N[C@H](C(=O)N[C@@H](CCC(=O)O)C(=O)N[C@@H](Cc1c[nH]c2ccccc12)C(=O)N[C@@H](CC(C)C)C(=O)N[C@@H](CCCNC(=N)N)C(=O)N[C@@H](CCCCN)C(=O)N[C@@H](CCCCN)C(=O)N[C@@H](CC(C)C)C(=O)N[C@@H](CCC(N)=O)C(=O)N[C@@H](CC(=O)O)C(=O)N[C@H](C(=O)N[C@@H](Cc1cnc[nH]1)C(=O)N[C@@H](CC(N)=O)C(=O)N[C@@H](Cc1ccccc1)C(N)=O)C(C)C)C(C)C`: the “fold change (FC)” value in [1] is given as 1.28; in series [11], 1.29; in series [13], 1.04. Besides, the result with Mus musculus [2], in the series on Pre-Osteoblast [3], with Pre-Osteoblast [4], with Pre-Osteoblast [8], in the series on Mus musculus [12] and with Mus musculus [14] was Active. For the same molecule, the Activity result in series [6] is on record as “Non-Toxic”. Also, the remaining at 12 h, 1 mg/ml in [7] was over 75%.
For `CC[C@H](C)[C@H](NC(=O)[C@H](CCC(=O)O)NC(=O)[C@H](CO)NC(=O)[C@@H](NC(=O)[C@H](CO)NC(C)=O)C(C)C)C(=O)N[C@@H](CCC(N)=O)C(=O)N[C@@H](CC(C)C)C(=O)N[C@@H](CCSC)C(=O)N[C@@H](Cc1cnc[nH]1)C(=O)N[C@@H](CC(N)=O)C(=O)N[C@@H](CC(C)C)C(=O)NCC(=O)N[C@@H](CCCCN)C(=O)N[C@@H](Cc1cnc[nH]1)C(=O)N[C@@H](CC(C)C)C(=O)N[C@@H](CC(N)=O)C(=O)N[C@@H](CO)C(=O)N[C@@H](CCSC)C(=O)N[C@@H](CCC(=O)O)C(=O)N[C@@H](CCCNC(=N)N[C@@H]1O[C@H](CO)[C@@H](O[C@@H]2O[C@H](CO)[C@H](O)[C@H](O)[C@H]2O)[C@H](O)[C@H]1O)C(=O)N[C@H](C(=O)N[C@@H](CCC(=O)O)C(=O)N[C@@H](Cc1c[nH]c2ccccc12)C(=O)N[C@@H](CC(C)C)C(=O)N[C@@H](CCCNC(=N)N)C(=O)N[C@@H](CCCCN)C(=O)N[C@@H](CCCCN)C(=O)N[C@@H](CC(C)C)C(=O)N[C@@H](CCC(N)=O)C(=O)N[C@@H](CC(=O)O)C(=O)N[C@H](C(=O)N[C@@H](Cc1cnc[nH]1)C(=O)N[C@@H](CC(N)=O)C(=O)N[C@@H](Cc1ccccc1)C(N)=O)C(C)C)C(C)C`, in series [6], the Activity entry is on record as “Non-Toxic”.
For `CC[C@H](C)[C@H](NC(=O)[C@H](CCC(=O)O)NC(=O)[C@H](CO)NC(=O)[C@@H](NC(=O)[C@H](CO)NC(C)=O)C(C)C)C(=O)N[C@@H](CCC(N)=O)C(=O)N[C@@H](CC(C)C)C(=O)N[C@@H](CCSC)C(=O)N[C@@H](Cc1cnc[nH]1)C(=O)N[C@@H](CC(N)=O)C(=O)N[C@@H](CC(C)C)C(=O)NCC(=O)N[C@@H](CCCCN)C(=O)N[C@@H](Cc1cnc[nH]1)C(=O)N[C@@H](CC(C)C)C(=O)N[C@@H](CC(N)=O)C(=O)N[C@@H](CO)C(=O)N[C@@H](CCSC)C(=O)N[C@@H](CCC(=O)O)C(=O)N[C@@H](CCCNC(=N)N[C@H]1O[C@H](CO)[C@@H](O)[C@H](O)[C@@H]1O)C(=O)N[C@H](C(=O)N[C@@H](CCC(=O)O)C(=O)N[C@@H](Cc1c[nH]c2ccccc12)C(=O)N[C@@H](CC(C)C)C(=O)N[C@@H](CCCNC(=N)N)C(=O)N[C@@H](CCCCN)C(=O)N[C@@H](CCCCN)C(=O)N[C@@H](CC(C)C)C(=O)N[C@@H](CCC(N)=O)C(=O)N[C@@H](CC(=O)O)C(=O)N[C@H](C(=O)N[C@@H](Cc1cnc[nH]1)C(=O)N[C@@H](CC(N)=O)C(=O)N[C@@H](Cc1ccccc1)C(N)=O)C(C)C)C(C)C`, the Activity entry in series [6] is “Non-Toxic”.
Same read-out and setting: then `CC[C@H](C)[C@H](NC(=O)[C@H](CCC(=O)O)NC(=O)[C@H](CO)NC(=O)[C@@H](NC(=O)[C@H](CO)NC(C)=O)C(C)C)C(=O)N[C@@H](CCC(N)=O)C(=O)N[C@@H](CC(C)C)C(=O)N[C@@H](CCSC)C(=O)N[C@@H](Cc1cnc[nH]1)C(=O)N[C@@H](CC(N)=O)C(=O)N[C@@H](CC(C)C)C(=O)NCC(=O)N[C@@H](CCCCN)C(=O)N[C@@H](Cc1cnc[nH]1)C(=O)N[C@@H](CC(C)C)C(=O)N[C@@H](CC(N)=O)C(=O)N[C@@H](CO)C(=O)N[C@@H](CCSC)C(=O)N[C@@H](CCC(=O)O)C(=O)N[C@@H](CCCNC(=N)N[C@@H]1O[C@H](CO)[C@@H](O)[C@H]1O)C(=O)N[C@H](C(=O)N[C@@H](CCC(=O)O)C(=O)N[C@@H](Cc1c[nH]c2ccccc12)C(=O)N[C@@H](CC(C)C)C(=O)N[C@@H](CCCNC(=N)N[C@@H]1O[C@H](CO)[C@@H](O)[C@H]1O)C(=O)N[C@@H](CCCCN)C(=O)N[C@@H](CCCCN)C(=O)N[C@@H](CC(C)C)C(=O)N[C@@H](CCC(N)=O)C(=O)N[C@@H](CC(=O)O)C(=O)N[C@H](C(=O)N[C@@H](Cc1cnc[nH]1)C(=O)N[C@@H](CC(N)=O)C(=O)N[C@@H](Cc1ccccc1)C(N)=O)C(C)C)C(C)C`, with “Non-Toxic”.

The values are drawn from ChEMBL document CHEMBL5537170, “Design, Synthesis, and Anti-Osteoporotic Characterization of Arginine N-Glycosylated Teriparatide Analogs via the Silver-catalyzed Solid-Phase Glycosylation Strategy” (J Med Chem, 2024).
